Target: T1, 15-PGDH de type 1 (Homo sapiens, UniProt P15428)
T1 construct: made in house
T1 sequence (P15428 1-266): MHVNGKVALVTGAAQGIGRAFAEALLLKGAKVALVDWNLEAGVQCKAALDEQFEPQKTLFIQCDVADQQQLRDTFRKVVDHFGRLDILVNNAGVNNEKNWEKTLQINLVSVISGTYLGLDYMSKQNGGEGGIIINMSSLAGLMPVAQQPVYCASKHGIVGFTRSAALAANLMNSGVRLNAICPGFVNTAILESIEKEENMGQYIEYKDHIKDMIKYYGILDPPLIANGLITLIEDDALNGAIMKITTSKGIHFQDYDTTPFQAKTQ
Test: Test on 15-PGDH type 1: spectrophotometric enzyme inhibition (340 nm, NAD+/PGE2)
Type: biochemical
Conditions: concentration reducing the enzymatic activity of 15-PGDH by 50%; Tris 100 mM pH 7,4, 37°C, 50 µM Prostaglandine E2, 1,5 mM β-NAD
Description: L'enzyme 15-PGDH est obtenue comme décrit dans la demande FR 02/05067 déposée au nom de L'Oréal, en suspension dans un milieu adapté à une concentration de 0,3 mg/mL puis bloquée à - 80°C. Pour les besoins du test, cette suspension est décongelée et stockée dans de la glace.
Par ailleurs on prépare un tampon Tris 100 mM, pH = 7,4, contenant 0,1 mM de dithiothréitol (D5545, Sigma-Aldrich, L'isle D'Abeau Chesne, BP 701, 38297, Saint Quentin Fallavier), 1,5 mM de β-NAD (N6522, Sigma-Aldrich, L'isle D'Abeau Chesne, BP 701, 38297, Saint Quentin Fallavier), 50 µM de Prostaglandine E2 (P4172, Sigma-Aldrich, L'isle D'Abeau Chesne, BP 701, 38297, Saint Quentin Fallavier).
Dans la cuve d'un spectrophotomètre (Perkin-Elmer, Lambda 2) thermostaté à 37°C, dont la longueur d'onde de mesure est réglée à 340 nm, sont introduits 0,965 ml de ce tampon (préalablement porté à 37°C). 0,035 mL de suspension enzymatique à 37°C sont introduits dans la cuve concomitamment à l'enregistrement ( correspondant à une augmentation de la densité optique à 340 nm). La vitesse maximale de réaction est relevée.
Les valeurs essais (contenant les composés de formule (I)) sont comparées à la valeur témoin (sans composé de formule (I)); les résultats indiqués représentent soit le pourcentage d'inhibition de l'activité enzymatique de 15-PGDH pour une concentration donnée de composé de formule (I), soit la concentration à laquelle le composé de formule (I) réduit de 50% l'activité enzymatique de 15-PGDH, à savoir IC50dh.

Structure (SMILES)	IC50
O=C1NC(=O)C(Cc2ccccc2Oc2ccccc2)S1 (stereo not shown) [compound 3]	2.75 µM
CC(C)(C)c1ccc(Oc2cccc(CC3SC(=O)NC3=O)c2)cc1 (stereo not shown) [compound 5]	0.58 µM
CC(C)(C)c1ccc(Oc2ccccc2CC2SC(=O)NC2=O)cc1 (stereo not shown) [compound 4, 5-[2-(4-tert-butylphenoxy)benzyl]-1,3-thiazolidine-2,4-dione]	0.4 µM
O=C1NC(=O)C(Cc2ccccc2Oc2ccc(Cl)cc2Cl)S1 (stereo not shown) [compound 2]	1.21 µM
